What all share (format): functional, cell-based
The test system of one test is HUVEC. Description: Antiproliferative activity against human umbilical vein endothelial cells (HUVECs) using MTT assay. (Tetrazolium dyes change colour on reduction, which living cells bring about.)
Another test deals with LoVo. Description: Antiproliferative activity against human colon cancer cell line (LoVo cells) using MTT assay.
Test [1] can be described thus: Antiproliferative activity against burkit lymphoma cell line (ST-486 cells) using MTT assay. The note with it: Homo sapiens.
Another test concerns DLD-1. Description: Antiproliferative activity against human colon cancer cell line (DLD-1 cells) using MTT assay.

For the compound `CN(C)CCN1C(=O)C(c2c[nH]c3ccccc23)=C(c2cn(CCOCCO)c3ccccc23)C1=O`, the IC50 in the test with HUVEC came out at 7 µM; with LoVo it was 7 µM; in test [1] it was 10 µM; in the test with DLD-1, 40 µM.

Consider `CN(C)CCN1C(=O)C(c2c[nH]c3ccccc23)=C(c2c[nH]c3ccccc23)C1=O`, for which the IC50 with HUVEC was 30 µM; with LoVo, more than 100 µM; in test [1] it was more than 100 µM; with DLD-1, more than 100 µM.

With `O=C1NC(=O)C(c2cn(CCOCCO)c3ccccc23)=C1c1c[nH]c2ccccc12`, the IC50 in the test with HUVEC was 2 µM; in the test on LoVo, 20 µM; in test [1], 2 µM; in the test with DLD-1, 6 µM.

Turning to `CN(C)CCOCCn1cc(C2=C(c3c[nH]c4ccccc34)C(=O)NC2=O)c2ccccc21`, the IC50 in the test with HUVEC is 20 µM; in the test on LoVo it was more than 100 µM; in test [1], 10 µM; in the test with DLD-1, more than 100 µM.

Regarding `CN(C)CCOCCn1cc(C2=C(c3c[nH]c4ccccc34)C(=O)N(CCN(C)C)C2=O)c2ccccc21`, the half-maximal inhibitory concentration (IC50) in the test on HUVEC is 25 µM; with LoVo it was more than 100 µM; in test [1], 30 µM; with DLD-1 it was more than 100 µM.

In the case of `CNCCOCCn1cc(C2=C(c3c[nH]c4ccccc34)C(=O)N(CCN(C)C)C2=O)c2ccccc21`, the IC50 was 50 µM in the test on HUVEC, more than 100 µM in the test with LoVo, 20 µM in test [1] and more than 100 µM with DLD-1.

Regarding `CN[C@@H]1C[C@H]2O[C@@](C)([C@@H]1OC)n1c3ccccc3c3c4c(c5c6ccccc6n2c5c31)C(=O)NC4` [STAUROSPORINE], the values for the half-maximal inhibitory concentration (IC50) (in the test with HUVEC; in test [1]; in the test with DLD-1) were 0.004 µM, 0.007 µM and 0.009 µM, respectively.

`Cc1ccc(C(=O)Nc2ccc(S(=O)(=O)O)c3cc(S(=O)(=O)O)cc(S(=O)(=O)O)c23)cc1NC(=O)c1cccc(NC(=O)Nc2cccc(C(=O)Nc3cc(C(=O)Nc4ccc(S(=O)(=O)O)c5cc(S(=O)(=O)O)cc(S(=O)(=O)O)c45)ccc3C)c2)c1` [SURAMIN] gave a half-inhibitory concentration (IC50) with HUVEC of 500 µM.

As usually defined, the IC50 is the concentration at which inhibition is half-maximal. Read a low IC50 as greater potency.
